Test results reported in patent publication US8759011B2, “Assay system for determining binding of hydrophobic drugs” (Nederlandse Organisatie voor …, priority 2009, dated 2014).

Test system: human plasma
Assay: plasma binding by partition extraction in dimethylsiloxane-coated 96-well plates
Type: in vitro ADME
Conditions: one plate
Protocol: 96-wells deepwell plates (lot 1450-401 Perkin-Elmer Lifesciences) were coated with dimethylsiloxane by making the solutions A-H here below in n-hexane. The used dimethylsiloxane (Silicone rubber, GE Silicones, Bergen op Zoom, The Netherlands) has a density of 1.06. Solution H contains 9.54 g dimethylsiloxane in 300 ml n-hexane.
From solutions A-H 100 μl is pipetted in row A-H of each plate. Plates were dried to air for minimally 18 hours (overnight).
To each dilution of plasma (solutions 1-12) an identical amount of the compound to be tested is added (about […]/200 μl solution). […] The solutions are incubated with the compound overnight at 4°.
The plasma solutions 1-12 are added to corresponding columns 1-12 of each plate (200 μl/well). Also 200 μl was added to a separate vessel to be able to correct for (plasma concentration dependent) solubilization. The next day the plates are emptied, washed once with aqua bidest and dried. When sufficient dry in all wells 200 μl counting solution (Optiphase Hisafe 2, Perkin Elmer Lifesciences) is added and the plates are covered. After incubation for minimally 4 hours under gently shaking the radioactivity in each plate is determined using liquid scintillation counting with a MicroBeta device (Perkin Elmer).
Additionally a total count was determined for each well. The total count is the count in the polymer coating+the count in the remaining fluid. The latter was determined by isolating 25 μl from solution in each well prior to emptying, and mixing with Optiphase (Perkin Elmer) followed by liquid scintillation counting.
1. For each datapoint for which the total count was determined, the recovery of total radioactivity was determined by comparing with the counts of the reference spiking solution. Cells with a total recovery <75% were excluded from further data analysis.
2. From all rows containing polymer, the a-specific binding, i.e. the corresponding counts from the row without polymer, was substracted.
3. Curve fitting was applied using the following formula for each cell:
Predicted counts in coating=Tc/((1/ffp+1/fp−1)×(fp×Vw)/Kpdms/Vp)), where
The above formula was fitted using ffp and Kpdms target parameters to be optimized using the least squares regression method over all wells that were included in the data analysis, by calculating the squared difference between the measured counts in the coating and the predicted counts in the coating. Results

counts in the polymer coating (plasma 0 ml/ml, coating 0 nl): 2561 | counts in the polymer coating (plasma 0 ml/ml, coating 4.1 nl): 3274 | counts in the polymer coating (plasma 0 ml/ml, coating 10.2 nl): 4727 | counts in the polymer coating (plasma 0 ml/ml, coating 25.6 nl): 6222 | counts in the polymer coating (plasma 0 ml/ml, coating 64 nl): 6561 | counts in the polymer coating (plasma 0 ml/ml, coating 160 nl): 8997 | counts in the polymer coating (plasma 0 ml/ml, coating 400 nl): 9656 | counts in the polymer coating (plasma 0 ml/ml, coating 1000 nl): 10194 | counts in the polymer coating (plasma 0.0005 ml/ml, coating 0 nl): 408 | counts in the polymer coating (plasma 0.0005 ml/ml, coating 4.1 nl): 3323 | counts in the polymer coating (plasma 0.0005 ml/ml, coating 10.2 nl): 5936 | counts in the polymer coating (plasma 0.0005 ml/ml, coating 25.6 nl): 9146 | counts in the polymer coating (plasma 0.0005 ml/ml, coating 64 nl): 14297 | counts in the polymer coating (plasma 0.0005 ml/ml, coating 160 nl): 16590 | counts in the polymer coating (plasma 0.0005 ml/ml, coating 400 nl): 17305 | counts in the polymer coating (plasma 0.0005 ml/ml, coating 1000 nl): 17396 | counts in the polymer coating (plasma 0.0008 ml/ml, coating 0 nl): 355 | counts in the polymer coating (plasma 0.0008 ml/ml, coating 4.1 nl): 3033 | counts in the polymer coating (plasma 0.0008 ml/ml, coating 10.2 nl): 6243 | counts in the polymer coating (plasma 0.0008 ml/ml, coating 25.6 nl): 9649 | counts in the polymer coating (plasma 0.0008 ml/ml, coating 64 nl): 15214 | counts in the polymer coating (plasma 0.0008 ml/ml, coating 160 nl): 17344 | counts in the polymer coating (plasma 0.0008 ml/ml, coating 400 nl): 18129 | counts in the polymer coating (plasma 0.0008 ml/ml, coating 1000 nl): 18254 | counts in the polymer coating (plasma 0.001 ml/ml, coating 0 nl): 368 | counts in the polymer coating (plasma 0.001 ml/ml, coating 4.1 nl): 2677 | counts in the polymer coating (plasma 0.001 ml/ml, coating 10.2 nl): 6668 | counts in the polymer coating (plasma 0.001 ml/ml, coating 25.6 nl): 10037 | counts in the polymer coating (plasma 0.001 ml/ml, coating 64 nl): 15293 | counts in the polymer coating (plasma 0.001 ml/ml, coating 160 nl): 17749 | counts in the polymer coating (plasma 0.001 ml/ml, coating 400 nl): 18063 | counts in the polymer coating (plasma 0.001 ml/ml, coating 1000 nl): 18984 | counts in the polymer coating (plasma 0.003 ml/ml, coating 0 nl): 250 | counts in the polymer coating (plasma 0.003 ml/ml, coating 4.1 nl): 2391 | counts in the polymer coating (plasma 0.003 ml/ml, coating 10.2 nl): 6779 | counts in the polymer coating (plasma 0.003 ml/ml, coating 25.6 nl): 9818 | counts in the polymer coating (plasma 0.003 ml/ml, coating 64 nl): 15161 | counts in the polymer coating (plasma 0.003 ml/ml, coating 160 nl): 18112 | counts in the polymer coating (plasma 0.003 ml/ml, coating 400 nl): 19067 | counts in the polymer coating (plasma 0.003 ml/ml, coating 1000 nl): 19314 | counts in the polymer coating (plasma 0.005 ml/ml, coating 0 nl): 266 | counts in the polymer coating (plasma 0.005 ml/ml, coating 4.1 nl): 2725 | counts in the polymer coating (plasma 0.005 ml/ml, coating 10.2 nl): 7054 | counts in the polymer coating (plasma 0.005 ml/ml, coating 25.6 nl): 10234 | counts in the polymer coating (plasma 0.005 ml/ml, coating 64 nl): 15908 | counts in the polymer coating (plasma 0.005 ml/ml, coating 160 nl): 18628 | counts in the polymer coating (plasma 0.005 ml/ml, coating 400 nl): 19174 | counts in the polymer coating (plasma 0.005 ml/ml, coating 1000 nl): 19676 | counts in the polymer coating (plasma 0.008 ml/ml, coating 0 nl): 262 | counts in the polymer coating (plasma 0.008 ml/ml, coating 4.1 nl): 2605 | counts in the polymer coating (plasma 0.008 ml/ml, coating 10.2 nl): 5943 | counts in the polymer coating (plasma 0.008 ml/ml, coating 25.6 nl): 9899 | counts in the polymer coating (plasma 0.008 ml/ml, coating 64 nl): 15892 | counts in the polymer coating (plasma 0.008 ml/ml, coating 160 nl): 18582 | counts in the polymer coating (plasma 0.008 ml/ml, coating 400 nl): 19405 | counts in the polymer coating (plasma 0.008 ml/ml, coating 1000 nl): 19541 | counts in the polymer coating (plasma 0.01 ml/ml, coating 0 nl): 260 | counts in the polymer coating (plasma 0.01 ml/ml, coating 4.1 nl): 2644 | counts in the polymer coating (plasma 0.01 ml/ml, coating 10.2 nl): 6466 | counts in the polymer coating (plasma 0.01 ml/ml, coating 25.6 nl): 9247 | counts in the polymer coating (plasma 0.01 ml/ml, coating 64 nl): 15112 | counts in the polymer coating (plasma 0.01 ml/ml, coating 160 nl): 18647 | counts in the polymer coating (plasma 0.01 ml/ml, coating 400 nl): 19137 | counts in the polymer coating (plasma 0.01 ml/ml, coating 1000 nl): 19454 | counts in the polymer coating (plasma 0.02 ml/ml, coating 0 nl): 208 | counts in the polymer coating (plasma 0.02 ml/ml, coating 4.1 nl): 2135 | counts in the polymer coating (plasma 0.02 ml/ml, coating 10.2 nl): 5288 | counts in the polymer coating (plasma 0.02 ml/ml, coating 25.6 nl): 8673 | counts in the polymer coating (plasma 0.02 ml/ml, coating 64 nl): 14665 | counts in the polymer coating (plasma 0.02 ml/ml, coating 160 nl): 18017 | counts in the polymer coating (plasma 0.02 ml/ml, coating 400 nl): 19188 | counts in the polymer coating (plasma 0.02 ml/ml, coating 1000 nl): 19218 | counts in the polymer coating (plasma 0.03 ml/ml, coating 0 nl): 195 | counts in the polymer coating (plasma 0.03 ml/ml, coating 4.1 nl): 1925 | counts in the polymer coating (plasma 0.03 ml/ml, coating 10.2 nl): 4066 | counts in the polymer coating (plasma 0.03 ml/ml, coating 25.6 nl): 6969 | counts in the polymer coating (plasma 0.03 ml/ml, coating 64 nl): 13475 | counts in the polymer coating (plasma 0.03 ml/ml, coating 160 nl): 17384 | counts in the polymer coating (plasma 0.03 ml/ml, coating 400 nl): 18707 | counts in the polymer coating (plasma 0.03 ml/ml, coating 1000 nl): 19112 | counts in the polymer coating (plasma 0.04 ml/ml, coating 0 nl): 156 | counts in the polymer coating (plasma 0.04 ml/ml, coating 4.1 nl): 1501 | counts in the polymer coating (plasma 0.04 ml/ml, coating 10.2 nl): 3633 | counts in the polymer coating (plasma 0.04 ml/ml, coating 25.6 nl): 5932 | counts in the polymer coating (plasma 0.04 ml/ml, coating 64 nl): 12160 | counts in the polymer coating (plasma 0.04 ml/ml, coating 160 nl): 16322 | counts in the polymer coating (plasma 0.04 ml/ml, coating 400 nl): 18174 | counts in the polymer coating (plasma 0.04 ml/ml, coating 1000 nl): 18716 | counts in the polymer coating (plasma 0.05 ml/ml, coating 0 nl): 124 | counts in the polymer coating (plasma 0.05 ml/ml, coating 4.1 nl): 1143 | counts in the polymer coating (plasma 0.05 ml/ml, coating 10.2 nl): 2760 | counts in the polymer coating (plasma 0.05 ml/ml, coating 25.6 nl): 5080 | counts in the polymer coating (plasma 0.05 ml/ml, coating 64 nl): 10938 | counts in the polymer coating (plasma 0.05 ml/ml, coating 160 nl): 16100 | counts in the polymer coating (plasma 0.05 ml/ml, coating 400 nl): 17730 | counts in the polymer coating (plasma 0.05 ml/ml, coating 1000 nl): 18325
Structure (SMILES): CC(C)c1nc(CN(C)C(=O)N[C@H](C(=O)N[C@@H](Cc2ccccc2)C[C@H](O)[C@H](Cc2ccccc2)NC(=O)OCc2cncs2)C(C)C)cs1 [Ritonavir]
